Structures can show the parent of a compound that is named as a salt. Where two headings read alike, the source gives them in different places. Each block holds one compound with its values, some of them ahead of it.
Columns and labels:
A-10 cells = test: Effects on cellular microtubules; assay type: cell-based; conditions: for Effect on interphase microtubules: 18 h, cell-based phenotypic screen, Fig. 3
WT βIII = test: SRB antiproliferative assay, βIII-tubulin expressing line; assay type: cell-based; conditions: for Rr (relative resistance), effect of βIII-tubulin on drug sensitivity: IC50 of the WT βIII cell line divided by IC50 of the parental HeLa cells
60 cancer cell lines = test: NCI 60 tumor cell line panel, summary over the panel
[1] = test system: purified bovine brain tubulin; test: In vitro tubulin polymerization; assay type: biochemical; conditions: initial study, Fig. 5; 10% glycerol, 3 mg/mL purified tubulin, 10 mM GTP
Bovine brain tubulin = Bovine brain tubulin (Bos taurus, UniProt P81947+Q6B856); test: Quantitative inhibition of tubulin assembly; assay type: biochemical
MDA-MB-435 cells [2] = test: Cell cycle analysis by flow cytometry; assay type: cell-based; conditions: MDA-MB-435, 24 h, 850 nM 1, 45 nM (±)-3•HCl
MDA-MB-435 cells [3] = test: Sulforhodamine B; assay type: cell-based
MDA-MB-468 = test: NCI 60 cell line panel tumor cell growth inhibition; conditions: Homo sapiens
SNB-75 = test: as above; conditions: Homo sapiens
UACC-62 = test: as above; conditions: Homo sapiens
SF-295 = test: as above; conditions: Homo sapiens
SK-MEL-28 = test: as above; conditions: Homo sapiens
SW-620 = test: as above; conditions: Homo sapiens
K-562 = test: as above; conditions: Homo sapiens, K562
NCI-H522 = test: as above; conditions: Homo sapiens
HeLa = test: SRB antiproliferative assay, parental line of βIII-tubulin isogenic pair; assay type: cell-based; conditions: Homo sapiens, read-out: IC50 (SD) HeLa
SR = test: NCI 60 cell line panel tumor cell growth inhibition; conditions: Homo sapiens
OVCAR-3 = test: as above; conditions: Homo sapiens
MCF7 = test: as above; conditions: Homo sapiens
HCT-15 = test: as above; conditions: Homo sapiens
KM12 = test: as above; conditions: Homo sapiens
SK-MEL-5 = test: as above; conditions: Homo sapiens
SK-OV-3 MDR-1-6/6 = test: SRB antiproliferative assay, Pgp overexpressing; assay type: cell-based; conditions: Homo sapiens, SK-OV-3, read-out: IC50 (SD) SK-OV-3 MDR-1-6/6
A498 = test: NCI 60 cell line panel tumor cell growth inhibition; conditions: Homo sapiens
MDA-MB-435 = test: as above; conditions: Homo sapiens
NCI/ADR-RES = test: as above; conditions: Homo sapiens
HL-60(TB) = test: as above; assay type: cell-based; conditions: Homo sapiens
SK-OV-3 = test: SRB antiproliferative assay, parental line of Pgp isogenic pair; assay type: cell-based; conditions: Homo sapiens, SK-OV-3, read-out: IC50 (SD) SK-OV-3
[4] = molecular target: tubulin (colchicine site) (Bos taurus, UniProt P81947+Q6B856); test: Inhibition of [3H]colchicine binding to tubulin; parameters: species or system bovine; conditions: read-out: Inhibition of colchicine binding % Inhibition ± SD
HS 578T = test: NCI 60 cell line panel tumor cell growth inhibition; conditions: Homo sapiens
RXF 393 = test: as above; conditions: Homo sapiens
[5] = Homo sapiens, MDA-MB-435, read-out: IC50±SD (MDA-MB-435)

Sequence of tubulin (colchicine site) (Q6B856 whole entry): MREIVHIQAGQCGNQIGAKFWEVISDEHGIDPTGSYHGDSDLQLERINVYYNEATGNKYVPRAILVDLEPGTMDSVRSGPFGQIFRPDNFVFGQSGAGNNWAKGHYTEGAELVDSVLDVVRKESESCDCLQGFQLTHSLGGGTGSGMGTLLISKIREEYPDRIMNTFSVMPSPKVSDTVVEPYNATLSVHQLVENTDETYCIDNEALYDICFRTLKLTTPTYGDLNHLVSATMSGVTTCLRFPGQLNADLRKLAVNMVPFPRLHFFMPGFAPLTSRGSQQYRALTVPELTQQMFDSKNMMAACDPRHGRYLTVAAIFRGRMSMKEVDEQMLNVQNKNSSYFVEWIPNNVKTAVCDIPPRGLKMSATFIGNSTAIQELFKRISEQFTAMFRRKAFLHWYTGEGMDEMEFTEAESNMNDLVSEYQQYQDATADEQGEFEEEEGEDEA
Sequence of tubulin (colchicine site) (P81947 whole entry): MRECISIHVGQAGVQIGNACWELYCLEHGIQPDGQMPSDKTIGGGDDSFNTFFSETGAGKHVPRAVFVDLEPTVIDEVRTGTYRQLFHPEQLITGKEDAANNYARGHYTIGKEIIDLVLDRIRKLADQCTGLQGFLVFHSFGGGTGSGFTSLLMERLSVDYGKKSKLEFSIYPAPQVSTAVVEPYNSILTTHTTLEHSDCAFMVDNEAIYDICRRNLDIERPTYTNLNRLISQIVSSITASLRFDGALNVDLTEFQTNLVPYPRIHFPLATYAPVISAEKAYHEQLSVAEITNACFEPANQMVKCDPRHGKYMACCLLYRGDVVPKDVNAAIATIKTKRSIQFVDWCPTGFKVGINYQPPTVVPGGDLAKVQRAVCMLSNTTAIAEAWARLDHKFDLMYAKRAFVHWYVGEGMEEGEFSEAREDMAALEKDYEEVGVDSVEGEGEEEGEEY
Sequence of Bovine brain tubulin (Q6B856 whole entry): as the sequence (Q6B856 whole entry) above
Sequence of Bovine brain tubulin (P81947 whole entry): as the sequence (P81947 whole entry) above

Compound: COc1ccccc1N(C)c1nc(C)nc2c1CC(C)C2.Cl (racemic) [(±)-6•HCl, N-(2-Methoxyphenyl)-N,2,6-trimethyl-6,7-dihydro-5H-cyclopenta[d]pyrimidin-4-aminium chloride]
Activity (A-10 cells; Table 2 data, 2′-OCH3 analog): inactive

IC50 (Bovine brain tubulin): 2600 ± 50 nM
Compound: COc1ccc(N(C)c2nc(C)nc3[nH]ccc23)cc1 [Compound 1, N-(4-Methoxyphenyl)-N,2-dimethyl-7H-pyrrolo[2,3-d]pyrimidin-4-amine]
Rr (relative resistance), effect of βIII-tubulin on drug sensitivity (WT βIII): 0.6–0.7
GI50 (60 cancer cell lines): < 500 nM
Effect on polymerization of purified tubulin [1]: potent inhibitors of purified tubulin assembly
Cell cycle effect (MDA-MB-435 cells [2]): mitotic accumulation
Effect on interphase microtubules (A-10 cells; A-10 cells): dramatic reorganization of the interphase microtubule network

Compound: N-(4-Methoxyphenyl)-2,6-dimethyl-6,7-dihydro-5H-cyclopenta[d]pyrimidin-4-amine [(±)-4]
IC50 (MDA-MB-435 cells [3]; read-out: IC50±SD (MDA-MB-435), inhibition of proliferation, SRB assay): > 10000 nM
EC50 (A-10 cells; read-out: EC50 for microtubule depolymerization, concentration required to cause 50% loss of cellular microtubules, A-10 cells): > 40000 nM

Compound: COc1ccc(N(C)c2nc(C)nc3c2CC(C)C3)cc1.Cl (racemic) [(±)-3•HCl, N-(4-Methoxyphenyl)-N,2,6-trimethyl-6,7-dihydro-5H-cyclopenta[d]pyrimidin-4-aminium chloride]
GI50 (MDA-MB-468): < 10 nM
GI50 (SNB-75): < 10 nM
Rr (relative resistance), effect of βIII-tubulin on drug sensitivity (WT βIII): 0.6–0.7
Rr (relative resistance), effect of βIII-tubulin on drug sensitivity (WT βIII; listed as (±)-3•HCI): 0.6
IC50 (WT βIII; read-out: IC50 (SD) WT βIII): 23.9 ± 1.7 nM
GI50 (UACC-62): < 10 nM
GI50 (SF-295): < 10 nM
GI50 (SK-MEL-28): < 10 nM
GI50 (SW-620): < 10 nM
GI50 (K-562): < 10 nM
GI50 (NCI-H522): < 10 nM
IC50 (HeLa): 37.3 ± 4.1 nM
GI50 (SR): < 10 nM
GI50 (OVCAR-3): < 10 nM
GI50 (MCF7): < 10 nM
GI50 (HCT-15): < 10 nM
GI50 (KM12): < 10 nM
GI50 (60 cancer cell lines): < 30 nM
GI50 (SK-MEL-5): < 10 nM
IC50 (SK-OV-3 MDR-1-6/6): 44.4 ± 3.2 nM
Effect on polymerization of purified tubulin [1]: potent inhibitors of purified tubulin assembly
GI50 (A498): < 10 nM
GI50 (MDA-MB-435): < 10 nM
IC50 (Bovine brain tubulin): 1900 ± 10 nM
GI50 (NCI/ADR-RES): < 10 nM
GI50 (HL-60(TB)): < 10 nM
IC50 (MDA-MB-435 cells [3]; [5]): 17 ± 0.7 nM
Cell cycle effect (MDA-MB-435 cells [2]): mitotic accumulation
IC50 (SK-OV-3): 38.6 ± 3.1 nM
Effect on interphase microtubules (A-10 cells; A-10 cells): dramatic reorganization of the interphase microtubule network
inhibition at 1 µM [4]: 60 ± 2%
inhibition at 5 µM [4]: 84 ± 3%
GI50 (HS 578T): < 10 nM
GI50 (RXF 393): < 10 nM

IC50 (MDA-MB-435 cells [3]; [5]): 153 ± 11.1 nM
Compound: COc1cccc(N(C)c2nc(C)nc3c2CC(C)C3)c1.Cl (racemic) [(±)-5•HCl, N-(3-Methoxyphenyl)-N,2,6-trimethyl-6,7-dihydro-5H-cyclopenta[d]pyrimidin-4-aminium chloride]
fold less potent than (±)-3•HCl (MDA-MB-435 cells [3]; comparison of 3′-OCH3 with 4′-OCH3 analog, Table 2): about 9 fold

IC50 (MDA-MB-435 cells [3]; [5]): 2700 ± 300 nM
Compound: Cc1nc2c(c(N(C)c3ccccc3)n1)CC(C)C2 (racemic) [(±)-7•HCl, N-Phenyl-N,2,6-trimethyl-6,7-dihydro-5H-cyclopenta[d]pyrimidin-4-aminium chloride]

Compound: COc1ccc(/C=C\c2cc(OC)c(OC)c(OC)c2)cc1OP(=O)(O)O [CA4P, combretastatin A-4 phosphate, reference compound]
IC50 (Bovine brain tubulin): 1000 ± 90 nM
inhibition at 1 µM [4]: 88 ± 2%
inhibition at 5 µM [4]: 99 ± 0.2%

From paper PMC2988971 (Journal of medicinal chemistry, 2010)
